In patent US11292801B2, “Calpain modulators and therapeutic uses thereof” (Blade Therapeutics, Inc., priority 2016, dated 2022):

Key:
Human Calpain 2/NS1 = biological target: T1, Human Calpain 2/NS1 (Homo sapiens, UniProt P17655); assay: Biochemical inhibition of calpain 2, continuous fluorescence (FRET substrate) assay; conditions: mean, read-out: Human Calpain 2/NS1 IC50 (nM)_MEAN
T1 sequence (P17655 1-700): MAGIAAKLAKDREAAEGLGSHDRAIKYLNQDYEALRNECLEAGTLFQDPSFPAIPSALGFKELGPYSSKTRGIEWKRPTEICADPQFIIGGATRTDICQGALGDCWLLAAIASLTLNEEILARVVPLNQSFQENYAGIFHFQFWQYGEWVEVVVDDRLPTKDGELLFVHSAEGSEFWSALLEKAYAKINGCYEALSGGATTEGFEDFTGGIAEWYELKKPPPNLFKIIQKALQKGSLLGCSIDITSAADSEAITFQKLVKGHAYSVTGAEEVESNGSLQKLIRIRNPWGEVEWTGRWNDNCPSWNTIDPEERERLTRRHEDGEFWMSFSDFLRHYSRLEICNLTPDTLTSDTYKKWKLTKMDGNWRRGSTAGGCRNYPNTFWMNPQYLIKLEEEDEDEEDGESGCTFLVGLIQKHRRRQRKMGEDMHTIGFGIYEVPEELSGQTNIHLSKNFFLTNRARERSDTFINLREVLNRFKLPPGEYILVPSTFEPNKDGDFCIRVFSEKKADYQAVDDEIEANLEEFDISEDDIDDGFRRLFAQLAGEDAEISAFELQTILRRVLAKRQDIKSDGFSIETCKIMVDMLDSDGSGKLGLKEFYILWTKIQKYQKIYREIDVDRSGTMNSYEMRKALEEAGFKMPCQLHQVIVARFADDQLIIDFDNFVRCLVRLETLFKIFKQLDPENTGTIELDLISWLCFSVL
T1 sequence (P04632 1-268 partner): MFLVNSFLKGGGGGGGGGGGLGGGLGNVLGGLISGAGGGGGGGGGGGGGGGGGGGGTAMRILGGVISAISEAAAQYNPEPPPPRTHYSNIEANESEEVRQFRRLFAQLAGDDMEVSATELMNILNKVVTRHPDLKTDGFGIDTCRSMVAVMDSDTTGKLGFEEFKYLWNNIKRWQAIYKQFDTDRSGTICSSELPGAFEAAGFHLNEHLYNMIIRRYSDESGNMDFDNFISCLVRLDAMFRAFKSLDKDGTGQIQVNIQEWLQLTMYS
How it was run: (§1)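 IC50 values come from 4-parameter fits of progress-curve rates (1-5 min slopes) against log inhibitor concentration. Calpain and inhibitor premixed at ambient 25C in Tris pH ~7.5/NaCl/DTT buffer, then CaCl2 and FRET substrate added to activate; 5-FAM fluorescence (ex 490/em 520) followed 10 min.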

Human Calpain 1/NS1 = biological target: T2, Human Calpain 1/NS1 (Homo sapiens, UniProt P07384); assay: Biochemical inhibition of calpain 1, continuous fluorescence (FRET substrate) assay; conditions: mean, read-out: Human Calpain 1/NS1 IC50 (nM)_MEAN
T2 sequence (P07384 1-714): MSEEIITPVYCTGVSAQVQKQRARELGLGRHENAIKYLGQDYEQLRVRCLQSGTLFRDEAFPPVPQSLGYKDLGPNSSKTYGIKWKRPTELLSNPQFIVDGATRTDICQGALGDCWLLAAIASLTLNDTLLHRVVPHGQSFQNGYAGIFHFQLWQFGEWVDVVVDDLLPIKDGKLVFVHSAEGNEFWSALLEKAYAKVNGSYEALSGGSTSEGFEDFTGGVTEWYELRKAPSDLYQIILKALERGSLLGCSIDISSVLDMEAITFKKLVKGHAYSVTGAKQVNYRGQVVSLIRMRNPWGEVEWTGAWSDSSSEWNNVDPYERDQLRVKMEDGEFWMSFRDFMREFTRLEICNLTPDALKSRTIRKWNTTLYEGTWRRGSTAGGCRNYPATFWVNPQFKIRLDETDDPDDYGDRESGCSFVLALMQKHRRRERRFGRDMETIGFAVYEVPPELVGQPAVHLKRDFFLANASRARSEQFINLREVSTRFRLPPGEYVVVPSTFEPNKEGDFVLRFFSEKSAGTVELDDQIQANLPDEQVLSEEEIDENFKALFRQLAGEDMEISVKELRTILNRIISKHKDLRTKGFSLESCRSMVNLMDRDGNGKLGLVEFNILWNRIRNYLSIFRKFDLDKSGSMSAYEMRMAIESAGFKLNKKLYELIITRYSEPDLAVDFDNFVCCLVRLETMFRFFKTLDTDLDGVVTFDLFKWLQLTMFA
T2 sequence (P04632 1-268 partner): T1 sequence (P04632 1-268 partner)
How it was run: as §1

Human Calpain 9/NS1 = biological target: T3, Human Calpain 9/NS1 (Homo sapiens, UniProt O14815); assay: Biochemical inhibition of calpain 9, continuous fluorescence (FRET substrate) assay; conditions: mean, read-out: Human Calpain 9/NS1 IC50 (nM)_MEAN
T3 sequence (O14815 1-690): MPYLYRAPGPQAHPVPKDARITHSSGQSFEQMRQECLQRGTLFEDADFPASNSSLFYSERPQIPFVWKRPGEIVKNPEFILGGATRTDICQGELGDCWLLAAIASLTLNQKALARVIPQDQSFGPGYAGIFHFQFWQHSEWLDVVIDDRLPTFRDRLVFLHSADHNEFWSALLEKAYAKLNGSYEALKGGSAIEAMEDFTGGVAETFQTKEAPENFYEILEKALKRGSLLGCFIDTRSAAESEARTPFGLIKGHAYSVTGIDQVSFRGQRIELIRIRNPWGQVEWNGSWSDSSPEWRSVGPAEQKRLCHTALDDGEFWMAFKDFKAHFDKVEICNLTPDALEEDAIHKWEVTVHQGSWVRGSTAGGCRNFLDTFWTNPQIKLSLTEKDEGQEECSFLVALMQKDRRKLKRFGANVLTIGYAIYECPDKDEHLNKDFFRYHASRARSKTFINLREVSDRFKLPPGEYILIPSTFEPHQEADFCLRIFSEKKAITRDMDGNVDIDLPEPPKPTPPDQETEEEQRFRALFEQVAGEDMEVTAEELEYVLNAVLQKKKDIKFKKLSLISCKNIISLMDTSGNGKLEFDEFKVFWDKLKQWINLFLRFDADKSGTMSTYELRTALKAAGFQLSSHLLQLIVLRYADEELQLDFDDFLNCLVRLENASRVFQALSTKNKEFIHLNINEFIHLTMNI
T3 sequence (P04632 1-268 partner): T1 sequence (P04632 1-268 partner)
How it was run: as §1

| Compound | IC50 (Human Calpain 2/NS1) | IC50 (Human Calpain 1/NS1) | IC50 (Human Calpain 9/NS1) |
| --- | --- | --- | --- |
| COc1ccc(CCNC(=O)C(=O)C2CCCCOCCOCc3ccccc3C(=O)N2)cc1OC (stereo not drawn) [Compound 123, N-(3,4-dimethoxyphenethyl)-2-oxo-2-(12-oxo-1,3,4,6,7,8,9,10,11,12-decahydrobenzo[f][1,4]dioxa[9]azacyclotetradecin-10-yl)acetamide] | > 10000 nM | > 10000 nM | 3000 to 10000 nM |
| CN1CCN(CCCNC(=O)C(=O)C2CCCCOCCOCc3ccccc3C(=O)N2)CC1 (stereo not drawn) [Compound 105, N-(3-(4-methylpiperazin-1-yl)propyl)-2-oxo-2-(12-oxo-1,3,4,6,7,8,9,10,11,12-decahydrobenzo[f][1,4]dioxa[9]azacyclotetradecin-10-yl)acetamide] | > 10000 nM | > 10000 nM | < 3000 nM |
| O=C(NCc1ccccc1)C(=O)[C@@H]1C/C=C\COCCOCc2ccccc2C(=O)N1 [Compound 3, (S,Z)—N-benzyl-2-oxo-2-(12-oxo-1,3,4,6,9,10,11,12-octahydrobenzo[f][1,4]dioxa[9]azacyclotetradecin-10-yl)acetamide] | > 10000 nM | > 10000 nM | < 3000 nM |
| CN(C)CCCNC(=O)C(=O)C1CCCCOCCOCc2ccccc2C(=O)N1 (stereo not drawn) [Compound 93, N-(3-(dimethylamino)propyl)-2-oxo-2-(12-oxo-1,3,4,6,7,8,9,10,11,12-decahydrobenzo[f][1,4]dioxa[9]azacyclotetradecin-10-yl)acetamide] | > 10000 nM | > 10000 nM | > 10000 nM |
| CN(C)CCNC(=O)C(=O)C1CCCCOCCOCc2ccccc2C(=O)N1 (stereo not drawn) [Compound 110, N-(2-(dimethylamino)ethyl)-2-oxo-2-(12-oxo-1,3,4,6,7,8,9,10,11,12-decahydrobenzo[f][1,4]dioxa[9]azacyclotetradecin-10-yl)acetamide] | > 10000 nM | > 10000 nM | 3000 to 10000 nM |
| COCCOCCOCCNC(=O)C(=O)C1CCCCOCCOCc2ccccc2C(=O)N1 (stereo not drawn) [Compound 122, N-(2-(2-(2-methoxyethoxy)ethoxy)ethyl)-2-oxo-2-(12-oxo-1,3,4,6,7,8,9,10,11,12-decahydrobenzo[f][1,4]dioxa[9]azacyclotetradecin-10-yl)acetamide] | > 10000 nM | > 10000 nM | > 10000 nM |
| C#CCNC(=O)C(=O)C1CCCCOCCOCc2ccccc2C(=O)N1 (stereo not drawn) [Compound 85, 2-Oxo-2-(12-oxo-1,3,4,6,7,8,9,10,11,12-decahydrobenzo[f][1,4]dioxa[9]aza-cyclotetradecin-10-yl)-N-(prop-2-yn-1-yl)acetamide] | > 10000 nM | > 10000 nM | 3000 to 10000 nM |
| O=C[C@@H]1CC=CCOCCOc2ccccc2C(=O)N1 [Compound 18, (S)-11-Oxo-2,3,8,9,10,11-hexahydro-5h-benzo[e][1,4]dioxa[8]azacyclotridecine-9-carbaldehyde] | > 10000 nM | > 10000 nM | 3000 to 10000 nM |
| COc1cccc(CN(C)C(=O)C(=O)C2CCCCOCCOCc3ccccc3C(=O)N2)c1 (stereo not drawn) [Compound 116, N-(3-methoxybenzyl)-N-methyl-2-oxo-2-(12-oxo-1,3,4,6,7,8,9,10,11,12-decahydrobenzo[f][1,4]dioxa[9]azacyclotetradecin-10-yl)acetamide] | > 10000 nM | > 10000 nM | > 10000 nM |

Now from value to compound:

| IC50 (Human Calpain 2/NS1) | IC50 (Human Calpain 1/NS1) | IC50 (Human Calpain 9/NS1) | Compound |
| --- | --- | --- | --- |
| 3000 to 10000 nM | > 10000 nM | < 3000 nM | O=C[C@@H]1CCCCCCCCc2cccnc2C(=O)N1 [Compound 49, (S)-15-Oxo-6,7,8,9,10,11,12,13,14,15-decahydro-5h-pyrido[2,3-c][1]aza-cyclotridecine-13-carbaldehyde] |
| < 3000 nM | < 3000 nM | < 3000 nM | C/C1=C\C[C@@H](C=O)NC(=O)c2cc(C)nn2-c2cccc(c2)OCC1 [Compound 144, (S,E)-1^3,6-dimethyl-11-oxo-1^1H-3-oxa-10-aza-1(1,5)-pyrazola-2(1,3)-benzenacycloundecaphan-6-ene-9-carbaldehyde] |
| 3000 to 10000 nM | > 10000 nM | 3000 to 10000 nM | CCOC(=O)CCNC(=O)C(=O)[C@@H]1CCCCOCCOCc2ccccc2C(=O)N1 [Compound 55, Ethyl (S)-3-(2-oxo-2-(12-oxo-1,3,4,6,7,8,9,10,11,12-decahydrobenzo[f][1,4]dioxa[9]azacyclotetradecin-10-yl)acetamido)propanoate] |
| < 3000 nM | < 3000 nM | < 3000 nM | O=C[C@@H]1Cc2cccc(c2)CCCCOc2cccc(c2)-c2ncccc2C(=O)N1 [Compound 35, (S)-3-Oxo-12-oxa-4-aza-2(2,3)-pyridina-1,7(1,3)-dibenzenacyclododecaphane-5-carbaldehyde] |
| < 3000 nM | 3000 to 10000 nM | < 3000 nM | O=C[C@@H]1CC=CCCCCCc2ccccc2C(=O)N1 [Compound 14, (S)-1-Oxo-2,3,4,7,8,9,10,11-octahydro-1h-benzo[c][1]aza-cyclotridecine-3-carbaldehyde] |
| < 3000 nM | 3000 to 10000 nM | < 3000 nM | NC(=O)C(=O)[C@@H]1CCCCOCCOCc2ccccc2C(=O)N1 [Compound 57, (S)-2-Oxo-2-(12-oxo-1,3,4,6,7,8,9,10,11,12-decahydrobenzo[f][1,4]dioxa[9]azacyclotetradecin-10-yl)acetamide] |
| 3000 to 10000 nM | 3000 to 10000 nM | < 3000 nM | O=C(NCCc1ccc(Cl)cc1)C(=O)[C@@H]1C/C=C/COCCOCc2ccccc2C(=O)N1 [Compound 78, (S,E)-N-(4-chlorophenethyl)-2-oxo-2-(12-oxo-1,3,4,6,9,10,11,12-octahydrobenzo[f][1,4]dioxa[9]azacyclotetradecin-10-yl)acetamide] |
| 3000 to 10000 nM | 3000 to 10000 nM | < 3000 nM | O=C(NCCc1ccc(Cl)cc1)C(=O)[C@@H]1C/C=C\COCCOCc2ccccc2C(=O)N1 [Compound 77, (S,Z)—N-(4-chlorophenethyl)-2-oxo-2-(12-oxo-1,3,4,6,9,10,11,12-octahydrobenzo[f][1,4]dioxa[9]azacyclotetradecin-10-yl)acetamide] |
